The values below come from US9750805B2, “Calcium flux agonists and methods therefor” (Nant Holdings IP, LLC, priority 2012, dated 2017).

One experiment concerns THP-1 cells. Put plainly: Human IL-8 activity, dose response of calcium flux agonists without added TLR or NOD ligand. Format: cell-based. The following applies: 24 hours, increasing concentrations, no added TLR or NOD ligand, FIGS. 1A-1C. An excerpt:
The inventors performed several studies to identify the effect of calcium flux agonists on various components of an immune response, and particularly on the effect of calcium flux agonists on IL-8 production and activation of NF-κB signaling. […] The dose response is observed over relatively large windows for ionophores (e.g., A23187 and ionomycin) and over at least two orders of magnitude for SERCA inhibitors (e.g., thapsigargin).
More specifically, the dose response of ionophores on NF-κB and IL-8 is shown in FIGS. 1A-1B using a monocyte-derived cell line to treatment and A23187 and ionomycin in the absence of externally added TLR or NOD ligands. […] FIG. 1C depicts the dose response to thapsigargin on NF-κB and IL-8.
Human IL-8 activity: A titration of thapsigargin (A.G. Scientific, San Diego Calif.), ionomycin (Sigma-Aldrich, St. Louis Mo.), and the calcium ionophore A23187 (Sigma-Aldrich) was added to a 96-well plate (Thermo Matrix, Waltham Mass.) seeded with 150,000 THP-1 cells (ATCC TIB-202) grown in RPMI 1640 (Cellgro, Herndon VA) supplemented with 10% FBS (Thermo HyClone, Waltham Mass.) and 1% penicillin-streptomycin-fungizone (Thermo HyClone). 24 hours after addition, 25 uL of supernatant was removed and assayed for human IL-8 using the Meso Scale Discovery Human IL-8 Tissue Culture Kit (MSD, Rockville, Md.) per manufacturer's protocol. The results were analyzed using the Meso Scale Discovery SECTOR Imager 2400 and normalized to a titration of human IL-8 supplied by the MSD Kit.
In general terms: A change in cytosolic calcium serves as a functional read-out for many receptors and channels.

For experiment [1], the system named is TLR (TLR2, TLR4, TLR5, TLR9) and NOD (NOD1, NOD2) family members. Kind of experiment: IL-8 production with TLR and NOD ligands plus suboptimal calcium flux agonist (FIGS. 3A-3E). In kind it is cell-based, human. The following applies: suboptimal doses: 20 nM thapsigargin, 316 nM A23187, 1 μM ionomycin, 10 μM cyclopiazonic acid, 31.6 μM DBHQ. On the procedure: To investigate if that observation was also true for other pattern recognition receptors, and especially for TLR and NOD receptors and other ligands, the inventors tested numerous TLR and NOD receptors and various ligands.
The doses used in this experiment were 20 nM for thapsigargin, 316 nM for A23187, 1 μM for ionomycin, 10 μM for cyclopiazonic acid, and 31.6 μM for DBHQ.
Thus, a clear pattern of adjuvant activity of calcium flux agonists on the immune response, and especially on IL-8 production and NF-κB signaling is evident where the immune response is associated with a TLR- or NOD-mediated event.

Experiment [2] concerns TLR2 ligand response of THP-1 promonocytic leukemia cell line. Kind of experiment: IL-8 release with TLR2 ligand plus suboptimal calcium flux agonist (FIG. 2). In kind it is cell-based, human. To be noted: THP-1 cells, suboptimal doses of ionophore; beyond cumulative individual responses (synergy). How it is done: (§1) For example, human promonocytic THP-1 cells were incubated in the presence or absence of a suboptimal dose of the TLR2 ligand Pam2CSK4 and compared to similarly treated cells which also received suboptimal doses of ionophore (here: A23187 and ionomycin). […] In another example, NF-κB THP-1 cells (a THP-1-derived transfectant line harboring an NF-κB-driven luciferase expression cassette) were cultivated in the presence or absence of a suboptimal dose of the TLR2 ligand Pam2CSK4 and compared to similarly treated cells that also received suboptimal doses of various SERCA inhibitors.
Here, the ionophores A23187 and ionomycin, as well as the SERCA inhibitor thapsigargin synergize with the TLR2 ligand (Pam2CYS) in the activation of cytokine release from the human THP-1 promonocytic leukemia cell line. It should be especially noted that while the TLR2 ligand alone provided for about 5 ng/ml IL-8 response, addition of a suboptimal dose of the calcium flux agonists (e.g. 20 nM for thapsigargin, 316 nM for A23187, and 1 μM for ionomycin) produced more than 10-fold quantities of IL-8 production in the cells.

For experiment [3], the system named is methicillin-sensitive S. aureus (MSSA). Put plainly: Direct antibiotic activity in liquid culture assay, MSSA. Format: cell-based. On the procedure: Consistent with these and previous results regarding their inherent antibiotic activity against S. aureus, the inventors confirmed the direct antibiotic activity of both ionophores for direct antibiotic activity on methicillin-sensitive S. aureus (MSSA).
To determine the antibiotic sensitivity of S. aureus, cultures were grown overnight in tryptic soy broth (Cellgro). The resulting cultures were used to inoculate new cultures to ensure log phase growth prior to the start of the experiment. Once the bacteria had reached log phase the bacteria was diluted to the appropriate OD600˜0.05 and transferred to a 24-well plate. Compounds of interest were added and plates were incubated in a shaking incubator at 37° C. Aliquots were removed at various time points and their respective OD600 was measured using a BioTek Synergy2 microplate reader (BioTek, Winooski, Vt.). For wells whose turbidity was affected by the addition of the compounds of interest, aliquots were removed and plated on tryptic soy agar (Cellgro) and incubated overnight in a 37° C. incubated and counted the following day. Thus, it should be appreciated that the calcium flux agonists are effective in antimicrobial treatments via an indirect effect, most likely due to the enhanced production of IL-8 and increased NF-κB-driven transcription.

In the next experiment the test system is S. aureus. Put plainly: Killing of intracellular S. aureus by thapsigargin-treated differentiated THP-1 cells (FIG. 11). In kind it is cell-based, human. To be noted: 1 day with 20 nM thapsigargin vs vehicle, MOI of 10. How it is done:
Briefly, a logarithmically dividing S. aureus was pelleted (2000×g for 10 min) and washed three times with Hank's Buffered Salt Solution (Cellgro). Concurrently, 2 day differentiated THP-1 cells (using 1 uM retinoic acid and 1 uM cholecalciferaol, Sigma-Aldrich) followed by 1 day with 20 nM thapsigargin or vehicle were collected and washed in Hank's Buffered Salt Solution. Differentiated cells were supplemented with 10% human serum (Innovative Research) and chilled on ice for 30 minutes. After the 30 minutes, S. aureus (MOI of 10) was added on ice for an additional 20 minutes to synchronize binding. Tubes were then incubated for 20 minutes at 37° C. After 20 minutes, 10 U/mL of lysostaphin (Sigma-Aldrich) was added to eliminate non-internalized bacteria. At the desired time points (20, 30, 60 minutes) 20 uL aliquots were removed and diluted into 10 mL of water. The dilution tubes were vortex and allowed to sit at room temp for 10 minutes to ensure proper lysis of the primary cells. After 10 minutes, the dilution tubes were centrifuged for 10 minutes at 2000×g and the remaining S. aureus was concentrated 20 fold and plated in triplicate on tryptic soy agar (Cellgro) and incubated overnight at 37° C. prior to colony enumeration.

The next experiment has as its system NF-κB THP-1 cells. Put plainly: NF-κB luciferase reporter synergy with TLR2 ligand and effect of Ca2+ modulating compounds (FIG. 4). The following applies: NF-κB THP-1 cells, suboptimal doses of SERCA inhibitors; beyond cumulative individual responses (synergy). Format: cell-based, human. On the procedure:
as §1
The inventors further investigated if the nature of calcium flux was of significance as increased intracellular calcium may have different origins. To that effect, the inventors used various calcium signaling modulators to investigate the nature of the calcium flux and contribution. As can be readily taken from the data shown, extracellular calcium flux into the cell was critical for synergistic amplification of calcium signaling. More specifically, FIG. 4 illustrates the effects of different Ca^2+ modulating compounds on synergy with respect to NF-κB activation.
(A reporter such as luciferase makes a cellular process visible.)

The target of experiment [4] is sarco/endoplasmic reticulum Ca2+ ATPases (SERCA). To be noted: cited from earlier work.

Consider `C[C@H](CCC(=O)O)C[C@H](C)C[C@H](C)C(=O)/C=C(\O)[C@H](C)C[C@H](C)C/C=C/[C@@H](C)[C@@H](O)[C@@H](C)[C@@H](O)C[C@@H]1CC[C@@](C)([C@H]2CC[C@@](C)([C@@H](C)O)O2)O1` [ionomycin], for which the IL-8 production entry in the experiment on THP-1 cells was “significant increases”. In addition, the “effect on IL-8 production with TLR and NOD ligands” value (“effect on IL-8 production” below) in experiment [1] is on record as “synergistic effect”. Further, the “amount of IL-8 produced with suboptimal TLR2 ligand Pam2CSK4” value in experiment [2] is given as “significantly increased”.
On to `CNc1ccc2oc(C[C@H]3O[C@@]4(CC[C@H]3C)O[C@H]([C@H](C)C(=O)c3ccc[nH]3)[C@H](C)C[C@H]4C)nc2c1C(=O)O` [A23187, calcimycin], for which the “direct antibiotic activity against MSSA” value in experiment [3] was “the more active compound”. In addition, the IL-8 production entry in the experiment on THP-1 cells was “significant increases”. The “effect on IL-8 production” value in experiment [1] is reported as “synergistic effect”. For the same molecule, the “amount of IL-8 produced with suboptimal TLR2 ligand Pam2CSK4” value in experiment [2] is reported as “significantly increased”.
As for `C/C=C(/C)C(=O)O[C@H]1C(C)=C2[C@H]([C@@H]1OC(=O)CCCCCCC)[C@@](C)(OC(C)=O)C[C@H](OC(=O)CCC)[C@@]1(O)[C@H]2OC(=O)[C@@]1(C)O` [thapsigargin], the “antimicrobial activity of treated cells against internalized S. aureus” value in the experiment with S. aureus is listed as “greater antimicrobial activity”. Moreover, the IL-8 production result in the experiment on THP-1 cells is reported as “significant increases”. Besides, the “effect on IL-8 production” value in experiment [1] is given as “synergistic effect”. Further, the “amount of luciferase produced with suboptimal TLR2 ligand Pam2CSK4” value in the experiment with NF-κB THP-1 cells is “significantly increased”. Further, the “affinity constant of Thapsigargin:SERCA binding” value in experiment [4] is given as “low picomolar range”.
